Entries after “also recorded” stand apart in the source; their conditions may differ. Bounds are passed on as bounds.

The nature of data set [1]: UPLC in vitro release assay of small molecules from MDP hydrogels. It is filed as physicochemical.
A further data set relates to blood glucose levels. Put plainly: Mouse type 1 diabetes model, blood glucose control. It counts as in vivo. The conditions noted are these: 3 IU sc without a hydrogel, diabetic mice.
The conditions of data set [2]: high doses; cited from earlier work.
The next data set concerns M. tuberculosis H37Rv. As to the kind of experiment: Mouse model of acute tuberculosis, lung CFU counts. It counts as in vivo, Mycobacterium tuberculosis. The conditions noted are these: for reduction of colony-forming units in lungs: 600 μg single sc injection without hydrogel; for reduction in bacterial burden compared with vehicle control: ten oral doses of 60 μg.
Data set [3] is described as follows: Ganfeborole pharmacokinetics after subcutaneous injection.
Data set [4] in a line: Stability of ganfeborole loaded in hydrogels quantified by UPLC. It is filed as physicochemical.
A short description of data set [5]: Boronate ester association. The conditions noted are these: SHA vs catechol, across boronic acids. It counts as physicochemical.
Data set [6] is described as follows: UV–vis stability of dynamic covalent bonding motifs in solution. The conditions noted are these: pH 7.4 PBS, over 15 days.
The nature of data set [7]: Bortezomib pharmacokinetics after subcutaneous injection. The conditions noted are these: 175 ng sc, alone without hydrogel.
For data set [8] the following is noted: female, BALB/c, mouse, in vivo, sc.
The mark [9] stands for this setting: from nitroCat-K2 hydrogel, 24 h.
Setting [10] is: from Cat-K2 hydrogel, first 2 h.
Where [11] appears, read: from unmodified K2 hydrogel, first 2 h, 10 mg ml^-1 peptide, PBS, 37 °C.
[12] abbreviates: 600 μg in SHA-E2, non-compartmental analysis.
The mark [13] stands for this setting: 600 μg in SHA-K2 vs drug alone, non-compartmental analysis.

For the compound `OB1OCc2cc(F)ccc21` [tavaborole], the “drug released in vitro” value came out at 80.0 ± 4.7% in data set [1] (from Cat-K2 hydrogel, 24 h); 49.1 ± 0.3% in [1] (from SHA-K2 hydrogel, 24 h); 64.8 ± 0.9% in data set [1] (setting [9]).

With “insulin: commercially purchased unmodified insulin”, the “time until mice became hyperglycemic again” value in the data set on blood glucose levels is on record as at most 4 h; in the data set with blood glucose levels (listed as unmodified insulin), “less than 4 h”.

With `CC(C)C[C@H](NC(=O)CNC(=O)c1cc(Cl)ccc1Cl)B(O)O` [ixazomib], the “drug released in vitro” value in data set [1] (setting [10]) was over 57.1%; in data set [1] (from SHA-K2 hydrogel, 2 h), 15–25%; in [1] (from SHA-K2 hydrogel, 24 h), 50–70%; in data set [1] (from nitroCat-K2 hydrogel, 2 h), 15–25%; in [1] (setting [9]), 50–70%; in [1] (setting [11]) it was over 82.3%.

As to `NC[C@H]1OB(O)c2c(OCCO)ccc(Cl)c21` [ganfeborole], the tolerability in humans entry in data set [2] was “well tolerated in humans at high doses”. Also, the “bacterial burden reduction compared with oral dosing” value in the data set with M. tuberculosis H37Rv (600 μg single injection in SHA-E2 vs ten oral doses) is on record as about 10 fold. The “reduction in bacterial lung burden compared with vehicle control” value in the data set with M. tuberculosis H37Rv (600 μg single sc injection in SHA-E2, 7 days) worked out at 2.58 log10; in the data set with M. tuberculosis H37Rv (600 μg single sc injection in SHA-E2, 14 days), 4.12 log10. In addition, the “reduction of colony-forming units in lungs” value with M. tuberculosis H37Rv (7 days) is listed as 0.95 log10; in the data set on M. tuberculosis H37Rv (14 days), 1.55 log10. The “reduction in bacterial burden compared with vehicle control” value with M. tuberculosis H37Rv (7 days) is 1.67 log10; in the data set on M. tuberculosis H37Rv (14 days) it was 3.32 log10. For the same compound, the “in vivo release” value in data set [3] (75 μg sc in 50 μl of 10 mg ml^-1 K2) and in [3] (75 μg sc in 50 μl of 10 mg ml^-1 nitroCat-K2) was “unable to prolong drug release in vivo” in each case. Moreover, in data set [3] (75 μg sc in 50 μl of 10 mg ml^-1 SHA-K2, EC50 ref 51), the “duration of concentration above the EC50 relative to other groups” value is recorded as “over 4 fold”. In addition, the “in vivo release compared with unmodified E2 hydrogel” value in [3] (600 μg in 200 μl of 20 mg ml^-1 SHA-E2) was “prolongs drug release”. In [3] (600 μg in SHA-E2), the “enhancement of half-life compared with ganfeborole alone” value is recorded as “over 10 fold”. The “effect on Cmax” value is “reduces the maximum circulating concentration” in [3] (setting [12]) and “reducing the maximum drug concentration” in [3] (600 μg in SHA-K2 vs drug alone). In data set [3] (setting [12]), the “effect on drug exposure (AUC)” value is reported as “improves drug exposure”. Besides, the “improvement of AUC” value in data set [3] (setting [13]) is 2.8 fold. The increase of half-life in [3] (setting [13]) was found to be 6.5 fold. In addition, the “stability of drug loaded in hydrogel” value in data set [4] (in Cat-K2) is “rapid oxidative degradation; also recorded: rapidly degrades the compound”; in [4] (in K2, nitroCat-K2 and SHA-K2 (all hydrogels except Cat-K2), two weeks) it was “majority of the drug remains stable over the course of two weeks”. Further, the “in vitro release rate” value in [1] (from K2 hydrogel) is “similarly rapid release rates”; in data set [1] (from SHA-K2 hydrogel, compared with K2), “significantly extend the release”; in data set [1] (from nitroCat-K2 hydrogel), “similarly rapid release rates”. Moreover, the “drug released in vitro” value in data set [1] (from K2 hydrogel, 30 min) is listed as 59.0 ± 1.1%; in data set [1] (from SHA-K2 hydrogel, 24 h), 48.7 ± 2.5%. Moreover, in data set [1] (from SHA-E2 hydrogel, loaded at 0.5 mg ml^-1), the “in vitro release” value is on record as “significantly slowed the release; also recorded: performed similarly to SHA-K2”.

With `COCCOc1nc(N)c2[nH]c(=O)n(Cc3ccc(C(=O)O)cc3)c2n1` [Compound 1V209], in [1] (drug without BA, SABER hydrogels vs K2), the “in vitro release kinetics from SABER hydrogels” value is recorded as “no altered release kinetics were observed”.

In the case of `O=C(NO)c1ccccc1O` [SHA, salicylhydroxamic acid], the “boronate ester association constant relative to catechol association constants” value in data set [5] is on record as 6.5- to 9.6 fold. Further, the “stability in solution by UV–vis” value in data set [6] is “excellent stability over 15 days in solution”.

`CC(C)C[C@H](NC(=O)[C@H](Cc1ccccc1)NC(=O)c1cnccn1)B(O)O` [bortezomib] yielded a maximum concentration in [7] of 21.2 ± 3.1 ng/mL. Further, in data set [8], the “blood concentration at 336 h relative to peak-matched 175 ng control” value is on record as 2.7 fold. The “drug released in vitro” value in data set [1] (setting [10]) is listed as over 57.1%; in data set [1] (from SHA-K2 hydrogel, 2 h), 15–25%; in [1] (from SHA-K2 hydrogel, 24 h), 50–70%; in [1] (from nitroCat-K2 hydrogel, 2 h) it was 15–25%; in data set [1] (setting [9]), 50–70%; in [1] (setting [11]), over 82.3%. In addition, the “glucose dependence of in vitro release” value in [1] (from SHA-K2, physiologically relevant glucose range) was “independent of glucose concentration”.

(Values after paper PMC13112199 (Nature nanotechnology, 2025).)
